The source made the active and inactive calls.
What was measured:
Paired box protein Pax-8 = Paired box protein Pax-8 (Homo sapiens, UniProt Q06710); assay: PAX8 transcriptional activity inhibition in RMG-I – RMG-I cells, luciferase, cherry-pick, dose response (AID 687027); assay type: functional, cell-based;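 note: luciferase reporter driven by Pax8 target thyroperoxidase promoter measured by SteadyGlo luminescence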
[1] = toxicity toward immortalized ovarian surface epithelium – cell-based, plate reader, dry powder samples, cytotoxicity control for PAX8 inhibitor project, dose response (AID 743045); assay type: functional
[2] = OVCAR-3 cell viability loss – plate reader, dry powder samples, PAX8 inhibitor project, dose response (AID 743044); assay type: functional, cell-based
[3] = IGROV1 cell killing – plate reader, dry powder samples, PAX8 inhibitor project, dose response (AID 743043); assay type: functional, cell-based; conditions: IGROV-1
[4] = OVCAR8 cell viability loss – plate reader, dry powder samples, PAX8 project, dose response (AID 743197); assay type: functional, cell-based; conditions: OVCAR-8
[5] = target: T1, Microphthalmia-associated transcription factor (Homo sapiens, UniProt O75030); assay: reducers of TRPM1 reporter luminescence, concentration series – cell-based, SK-MEL-5, cherry-picked, set 3, MITF inhibitor project, dose response (AID 493073); assay type: functional;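 note: SK-MEL-5 melanoma cells with luciferase driven by the MITF target TRPM1 promoter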
T1 sequence (O75030 whole entry): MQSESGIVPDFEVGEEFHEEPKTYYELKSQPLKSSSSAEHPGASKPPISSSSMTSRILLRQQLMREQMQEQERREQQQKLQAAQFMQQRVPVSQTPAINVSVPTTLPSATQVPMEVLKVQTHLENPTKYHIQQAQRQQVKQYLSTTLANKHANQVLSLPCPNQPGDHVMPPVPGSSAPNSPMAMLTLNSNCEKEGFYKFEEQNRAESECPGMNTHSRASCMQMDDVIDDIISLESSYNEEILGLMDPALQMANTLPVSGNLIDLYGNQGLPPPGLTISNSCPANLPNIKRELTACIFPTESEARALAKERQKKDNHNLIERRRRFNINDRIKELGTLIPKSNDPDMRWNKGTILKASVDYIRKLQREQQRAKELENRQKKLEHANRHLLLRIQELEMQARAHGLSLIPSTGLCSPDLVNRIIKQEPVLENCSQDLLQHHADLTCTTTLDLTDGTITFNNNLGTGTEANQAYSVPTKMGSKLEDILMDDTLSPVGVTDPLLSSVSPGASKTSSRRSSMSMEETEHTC

[6] = target: T2, Replicative DNA helicase DnaB (Mycobacterium tuberculosis, UniProt P9WMR3); assay: DnaB intein splicing inhibitors, dose response, biochemical, cell-free fluorescence (AID 449749); assay type: functional
T2 sequence (P9WMR3 whole entry): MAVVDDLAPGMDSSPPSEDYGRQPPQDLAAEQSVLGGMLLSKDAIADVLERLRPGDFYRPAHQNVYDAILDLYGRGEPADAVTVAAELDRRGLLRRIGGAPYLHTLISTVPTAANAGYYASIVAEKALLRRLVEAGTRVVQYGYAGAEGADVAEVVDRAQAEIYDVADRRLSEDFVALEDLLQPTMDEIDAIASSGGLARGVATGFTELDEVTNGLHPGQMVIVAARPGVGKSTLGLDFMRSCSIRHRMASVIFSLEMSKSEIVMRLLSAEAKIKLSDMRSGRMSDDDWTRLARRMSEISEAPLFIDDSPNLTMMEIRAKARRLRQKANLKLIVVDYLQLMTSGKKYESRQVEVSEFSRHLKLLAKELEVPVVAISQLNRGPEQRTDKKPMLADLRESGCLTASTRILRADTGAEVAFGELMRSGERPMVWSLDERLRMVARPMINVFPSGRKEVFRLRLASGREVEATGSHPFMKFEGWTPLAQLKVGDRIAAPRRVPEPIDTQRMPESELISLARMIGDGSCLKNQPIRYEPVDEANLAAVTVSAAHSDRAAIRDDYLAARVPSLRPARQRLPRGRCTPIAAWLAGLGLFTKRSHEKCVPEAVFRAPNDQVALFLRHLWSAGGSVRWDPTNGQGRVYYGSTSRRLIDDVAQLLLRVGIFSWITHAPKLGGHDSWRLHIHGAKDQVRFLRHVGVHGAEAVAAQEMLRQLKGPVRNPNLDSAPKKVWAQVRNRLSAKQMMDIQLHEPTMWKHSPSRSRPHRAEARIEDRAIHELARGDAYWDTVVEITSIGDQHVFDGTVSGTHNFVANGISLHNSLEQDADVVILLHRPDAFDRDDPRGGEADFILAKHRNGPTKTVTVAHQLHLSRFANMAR

Protein RecA = target: T3, Protein RecA (Mycobacterium tuberculosis, UniProt P9WHJ3); assay: Fluorescence Cell-Free Homogeneous Dose Retest to Identify Inhibitors of RecA-Intein Splicing Activity. [Related pubchem assays (depositor defined):AID2097, AID2223, AID489010, AID492950]; assay type: functional
T3 sequence (P9WHJ3 whole entry): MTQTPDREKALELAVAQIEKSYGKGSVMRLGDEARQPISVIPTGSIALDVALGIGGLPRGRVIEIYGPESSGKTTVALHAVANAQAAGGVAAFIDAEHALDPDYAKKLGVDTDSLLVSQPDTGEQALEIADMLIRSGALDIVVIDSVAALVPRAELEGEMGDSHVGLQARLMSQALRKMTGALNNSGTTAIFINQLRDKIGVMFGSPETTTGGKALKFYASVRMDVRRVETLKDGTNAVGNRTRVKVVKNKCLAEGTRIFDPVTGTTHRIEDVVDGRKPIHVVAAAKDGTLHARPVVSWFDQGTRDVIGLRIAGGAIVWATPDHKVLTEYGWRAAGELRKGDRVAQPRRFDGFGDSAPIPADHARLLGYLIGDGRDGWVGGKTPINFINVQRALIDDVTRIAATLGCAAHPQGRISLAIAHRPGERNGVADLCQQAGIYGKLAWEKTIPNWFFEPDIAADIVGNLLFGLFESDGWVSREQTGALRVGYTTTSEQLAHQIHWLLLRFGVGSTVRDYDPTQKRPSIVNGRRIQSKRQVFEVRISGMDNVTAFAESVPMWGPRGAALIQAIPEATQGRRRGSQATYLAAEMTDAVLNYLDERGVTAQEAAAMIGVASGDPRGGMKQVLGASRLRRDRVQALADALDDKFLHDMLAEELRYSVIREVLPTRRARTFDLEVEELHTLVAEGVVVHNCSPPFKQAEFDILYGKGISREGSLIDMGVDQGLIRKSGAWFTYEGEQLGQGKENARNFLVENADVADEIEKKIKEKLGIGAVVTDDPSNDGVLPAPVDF

[7] = reduction of Shn3 3'UTR-driven luciferase in osteoblasts – cell-based, Clone20 osteoblasts, firefly luciferase, cherry-picked, dose response (AID 624132); assay type: functional;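 note: firefly luciferase luminescence from reporter carrying the Shn3 3'UTR in osteoblasts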
[8] = loss of viability in HepG2 cells – cell-based, CellTiter-Glo, cherry-picked, cytotoxicity control for Shn3 inhibitor project, dose response (AID 624134); assay type: functional
[9] = non-specific 3'UTR reporter inhibition in Clone20-Shn3RL – cell-based, Renilla luciferase, cherry-picked, counter-screen for Shn3 inhibitor project, dose response (AID 624133); assay type: functional
[10] = Fluorescence-based cell-based high throughput dose response assay for inhibitors of the interaction of nucleotide-binding oligomerization domain containing 2 (NOD2) and the receptor-interacting serine-threonine kinase 2 (RIPK2).; assay type: functional; conditions: Homo sapiens
Beta Lactamase = Beta Lactamase (Pseudomonas aeruginosa, UniProt Q932Y6); assay: BLA reporter interference, concentration series – BLA reporter cells, FRET fluorescence, artefact control for NOD2-RIPK2 interaction inhibitor project, dose response (AID 651552); assay type: functional, cell-based
Fatty acid synthase [11] = target: T4, Fatty acid synthase (Homo sapiens, UniProt P49327); assay: inhibition of human FAS-TE enzyme activity – biochemical, endpoint fluorescence intensity, uHTS hits, dose response (AID 624327); assay type: functional;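 note: fluorescence from hydrolysis of an O-methyl fluorescein acyl ester substrate by the enzyme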
Fatty acid synthase [12] = target: T4, Fatty acid synthase; assay: inhibition of human FAS-TE enzyme activity – biochemical, kinetic fluorescence intensity, dose response (AID 624326); assay type: functional;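 note: rate of fluorescence rise from hydrolysis of a fluorogenic O-methyl fluorescein ester substrate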
[13] = Shn3 transcript knock-down in Clone20 cells – cell-based, qPCR, cherry-pick, dose response (AID 743415); assay type: functional
[14] = Shn3 3'UTR reporter signal decrease – cell-based, Clone20 osteoblasts, firefly luciferase, cherry-pick, set 2, Schnurri-3 inhibitor project, dose response (AID 720490); assay type: functional;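 note: actives lower the luminescence signal as inhibitors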
Protein Wnt-3a = Protein Wnt-3a (Mus musculus, UniProt P27467); assay: SAR analysis of small molecule antagonists of Gli-SUFU in a Wnt3a luminescent reporter assay.; assay type: functional
[15] = inhibitors of non-replicating M. tuberculosis, dose response, luciferase, dry powder (AID 651619); assay type: functional; conditions: Mycobacterium tuberculosis
[16] = inhibitors of non-replicating M. tuberculosis, dose response, luciferase, dry powder (AID 651620); assay type: functional; conditions: Mycobacterium tuberculosis
[17] = T. cruzi growth inhibition in host cells, dose response, cell-based, plate reader, dry powder, set 2 (AID 652275); assay type: functional
[18] = A Cell-Based Confirmatory Screen for Compounds that Inhibit VEEV, TC-83 (3).; assay type: functional
[19] = mouse embryonic fibroblast toxicity – cell-based, plate reader, dry powder, set 2, cytotoxicity control, dose response (AID 652280); assay type: functional; conditions: NIH3T3

T4 sequence (P49327 whole entry): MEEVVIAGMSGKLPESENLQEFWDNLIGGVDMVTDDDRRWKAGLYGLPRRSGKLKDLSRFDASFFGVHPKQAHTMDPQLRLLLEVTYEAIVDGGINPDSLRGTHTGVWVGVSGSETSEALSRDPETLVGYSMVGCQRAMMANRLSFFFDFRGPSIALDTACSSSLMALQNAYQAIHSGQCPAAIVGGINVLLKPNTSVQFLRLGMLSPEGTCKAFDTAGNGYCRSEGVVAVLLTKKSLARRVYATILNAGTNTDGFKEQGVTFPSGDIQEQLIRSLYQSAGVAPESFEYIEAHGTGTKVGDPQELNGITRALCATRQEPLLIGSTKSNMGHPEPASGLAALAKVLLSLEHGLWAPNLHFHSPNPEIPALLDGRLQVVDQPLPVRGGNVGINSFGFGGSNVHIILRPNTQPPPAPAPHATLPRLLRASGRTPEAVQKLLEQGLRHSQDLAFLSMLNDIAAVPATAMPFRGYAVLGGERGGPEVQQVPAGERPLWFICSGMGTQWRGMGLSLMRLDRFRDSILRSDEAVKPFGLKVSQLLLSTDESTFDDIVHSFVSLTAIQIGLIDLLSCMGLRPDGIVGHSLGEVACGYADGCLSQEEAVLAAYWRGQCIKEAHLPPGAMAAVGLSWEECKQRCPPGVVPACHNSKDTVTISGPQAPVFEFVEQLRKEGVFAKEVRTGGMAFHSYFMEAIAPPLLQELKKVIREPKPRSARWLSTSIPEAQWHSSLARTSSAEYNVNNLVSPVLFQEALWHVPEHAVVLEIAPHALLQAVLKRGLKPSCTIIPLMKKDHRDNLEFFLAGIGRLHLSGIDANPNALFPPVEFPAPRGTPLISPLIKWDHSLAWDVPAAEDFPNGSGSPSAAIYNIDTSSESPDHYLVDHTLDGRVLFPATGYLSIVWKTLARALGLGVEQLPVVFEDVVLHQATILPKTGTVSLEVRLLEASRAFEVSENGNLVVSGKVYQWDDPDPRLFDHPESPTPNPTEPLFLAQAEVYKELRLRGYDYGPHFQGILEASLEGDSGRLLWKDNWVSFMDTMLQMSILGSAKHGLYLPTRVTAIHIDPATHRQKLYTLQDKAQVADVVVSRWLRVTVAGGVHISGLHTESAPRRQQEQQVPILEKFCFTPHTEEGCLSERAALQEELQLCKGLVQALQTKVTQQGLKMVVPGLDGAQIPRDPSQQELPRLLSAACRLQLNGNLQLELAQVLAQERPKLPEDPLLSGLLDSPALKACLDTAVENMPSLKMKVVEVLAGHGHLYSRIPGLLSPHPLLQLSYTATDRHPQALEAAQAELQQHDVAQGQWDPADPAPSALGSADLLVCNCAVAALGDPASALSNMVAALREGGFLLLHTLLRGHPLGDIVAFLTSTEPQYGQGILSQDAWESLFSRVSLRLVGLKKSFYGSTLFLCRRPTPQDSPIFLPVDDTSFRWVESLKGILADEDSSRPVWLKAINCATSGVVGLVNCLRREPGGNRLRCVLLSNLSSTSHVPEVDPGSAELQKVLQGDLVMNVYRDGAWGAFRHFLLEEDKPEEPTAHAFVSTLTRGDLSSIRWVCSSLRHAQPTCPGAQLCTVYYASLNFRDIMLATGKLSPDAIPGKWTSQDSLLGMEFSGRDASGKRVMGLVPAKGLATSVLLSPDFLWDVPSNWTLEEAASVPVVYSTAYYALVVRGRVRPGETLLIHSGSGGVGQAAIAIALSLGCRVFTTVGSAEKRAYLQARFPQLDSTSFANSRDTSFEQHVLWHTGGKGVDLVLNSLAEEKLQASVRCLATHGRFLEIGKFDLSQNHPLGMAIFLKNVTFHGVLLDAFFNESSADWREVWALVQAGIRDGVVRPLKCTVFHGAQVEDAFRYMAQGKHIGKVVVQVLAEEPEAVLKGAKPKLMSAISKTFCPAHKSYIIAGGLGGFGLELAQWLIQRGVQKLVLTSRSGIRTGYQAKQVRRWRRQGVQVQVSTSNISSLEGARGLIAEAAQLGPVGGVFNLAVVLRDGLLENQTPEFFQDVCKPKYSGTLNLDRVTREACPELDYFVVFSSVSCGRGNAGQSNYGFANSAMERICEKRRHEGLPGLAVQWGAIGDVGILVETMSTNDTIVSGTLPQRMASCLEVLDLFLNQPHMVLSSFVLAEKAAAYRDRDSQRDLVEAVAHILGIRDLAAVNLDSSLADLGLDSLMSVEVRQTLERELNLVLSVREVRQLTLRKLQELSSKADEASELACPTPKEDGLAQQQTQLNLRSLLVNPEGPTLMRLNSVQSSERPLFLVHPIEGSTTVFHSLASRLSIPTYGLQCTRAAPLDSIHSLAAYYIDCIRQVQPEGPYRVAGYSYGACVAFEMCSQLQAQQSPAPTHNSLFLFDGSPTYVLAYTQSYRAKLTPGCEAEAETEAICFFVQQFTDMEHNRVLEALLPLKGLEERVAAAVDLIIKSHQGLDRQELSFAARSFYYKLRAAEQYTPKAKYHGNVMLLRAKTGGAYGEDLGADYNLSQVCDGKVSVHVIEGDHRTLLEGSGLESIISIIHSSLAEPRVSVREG
Paired box protein Pax-8, sequence (Q06710 whole entry): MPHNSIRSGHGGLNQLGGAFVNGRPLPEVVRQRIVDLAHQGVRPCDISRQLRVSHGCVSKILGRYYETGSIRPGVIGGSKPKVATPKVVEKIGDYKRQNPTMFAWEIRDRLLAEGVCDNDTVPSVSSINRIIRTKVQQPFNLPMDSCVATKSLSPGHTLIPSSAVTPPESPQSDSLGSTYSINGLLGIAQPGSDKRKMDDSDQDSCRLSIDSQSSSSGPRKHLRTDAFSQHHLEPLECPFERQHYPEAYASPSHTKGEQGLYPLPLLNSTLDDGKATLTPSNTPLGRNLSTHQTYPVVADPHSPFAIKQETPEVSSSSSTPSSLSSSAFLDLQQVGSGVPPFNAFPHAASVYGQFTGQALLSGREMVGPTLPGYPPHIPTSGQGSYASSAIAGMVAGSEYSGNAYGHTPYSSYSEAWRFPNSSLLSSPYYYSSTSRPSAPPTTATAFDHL
Beta Lactamase, sequence (Q932Y6 whole entry): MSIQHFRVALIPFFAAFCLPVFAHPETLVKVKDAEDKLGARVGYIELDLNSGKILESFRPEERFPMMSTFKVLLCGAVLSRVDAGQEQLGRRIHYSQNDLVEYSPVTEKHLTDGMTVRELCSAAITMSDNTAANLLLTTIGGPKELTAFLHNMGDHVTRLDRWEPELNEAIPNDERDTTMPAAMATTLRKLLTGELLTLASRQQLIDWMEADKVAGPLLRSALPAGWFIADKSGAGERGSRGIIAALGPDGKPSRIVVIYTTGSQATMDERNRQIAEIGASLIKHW
Protein Wnt-3a, sequence (P27467 whole entry): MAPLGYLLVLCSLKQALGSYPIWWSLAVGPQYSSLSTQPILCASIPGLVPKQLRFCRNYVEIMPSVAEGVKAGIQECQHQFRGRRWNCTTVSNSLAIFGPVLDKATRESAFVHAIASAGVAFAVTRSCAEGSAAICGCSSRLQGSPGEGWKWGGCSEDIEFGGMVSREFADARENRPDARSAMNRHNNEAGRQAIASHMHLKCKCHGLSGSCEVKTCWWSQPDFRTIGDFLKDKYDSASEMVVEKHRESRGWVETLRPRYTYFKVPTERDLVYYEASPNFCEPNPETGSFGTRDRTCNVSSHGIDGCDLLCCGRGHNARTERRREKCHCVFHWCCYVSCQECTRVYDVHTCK

## C[C@H]1CCCCO[C@H](CN(C)C(=O)Nc2ccc(C(F)(F)F)cc2)[C@@H](C)CN([C@@H](C)CO)C(=O)c2cc(NS(=O)(=O)c3ccc(Cl)cc3)ccc2O1
Paired box protein Pax-8
  AC50: 4.68 µM (active)
[1]
  AC50: 51.5 µM (active)
[2]
  AC50: 20.1 µM (active)
[3]
  AC50: 47.6 µM (active)
[4]
  AC50: 37.2 µM (active)

## CC(C)[C@H](NC(=O)OC(C)(C)C)c1nnc(S(=O)(=O)Cc2c(F)cccc2Cl)o1
[5]
  AC50: 11.6 µM (active)
[6]
  AC50: 4.9 µM (active)
Protein RecA
  EC50: 9.61 µM (active)
[7]
  AC50: 1.08 µM (active)
[8]
  AC50: 61.7 µM (active)
[9]
  AC50: 13.5 µM (active)
[10]
  IC50: 1.97 µM (active)
Beta Lactamase
  IC50: 10.5 µM (inactive)
Fatty acid synthase [11]
  IC50: 3.02 µM (active)
Fatty acid synthase [12]
  IC50: 1.61 µM (active)
[13]
  AC50: 12 µM (active)
[14]
  AC50: 3.07 µM (active)

## O=C(Nc1cc(N2CCNCC2)ncn1)c1ccccc1
Protein Wnt-3a
  IC50: > 21.8 µM (inactive)

## Fc1ccc(-c2nnc(SCc3cn(-c4ccccc4)nn3)o2)cc1
[15]
  IC90: 1 µM (active)
[16]
  IC90: 1 µM (active)

## CCC(=O)N1CC[C@@H]2[C@H]1c1cc(-c3ccccc3)ccc1N(C)[C@@H]2CO
[17]
  AC50: 8.49 µM (active)

## O=C(Cc1ccccc1)Nc1nc2c(s1)CCCC2
[18]
  IC50: 9.33 µM (active)

## Cc1ccccc1-c1ccc([C@H]2[C@H](CO)N3CCCCN(CC4CC4)C[C@@H]23)cc1
[19]
  AC50: 3.99 µM (active)

From ChEMBL document CHEMBL1201862, “PubChem BioAssay data set” (2004)
